Some test systems named below: HOP-92 NSCLC; U251 CNS; 786-0 renal; OVCAR-4 ovarian; MDA-MB-435; LOX IMVI melanoma; HCT-15 colon; BT-549 breast; SK-MEL-5 melanoma; SR leukemia; UACC-257 melanoma; A498 renal; SF-268 CNS; HOP-62 NSCLC; A549 NSCLC; M14 melanoma; CAKI-1 renal; SNB-75 CNS; HS 578T breast.
What all share (assay): growth of human tumour cells (NCI), 48 h

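Where inhibition never reached the appropriate level, the endpoint shown equals the highest concentration tested. Otherwise, values were interpolated linearly from a five-concentration, 48-hour dose response in 96-well plates. Definition used: TGI = concentration required for complete inhibition of growth.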

Regarding `COc1ccc(P2(=S)SP(=S)(c3ccc(Cl)cc3)S2)cc1` (stereo not drawn), the TGI with HOP-92 NSCLC, with U251 CNS, in the test with 786-0 renal, in the test on OVCAR-4 ovarian, with MDA-MB-435 and with LOX IMVI melanoma was greater than 100 µM in each case. Further, the TGI in the test on HCT-15 colon, in the test with BT-549 breast, in the test on SK-MEL-5 melanoma, in the test with SR leukemia, in the test on UACC-257 melanoma and in the test on A498 renal was greater than 100 µM throughout. Further, the TGI with SF-268 CNS, in the test with HOP-62 NSCLC, in the test on A549 NSCLC, in the test with M14 melanoma, in the test on CAKI-1 renal and with SNB-75 CNS was greater than 100 µM each time. Further, in the test with HS 578T breast, the TGI was greater than 100 µM.

With `CCOC(=O)C1=c2[nH]c3cccc4cccc(c43)n2C(=O)CC1c1ccccc1` (stereo not drawn), the TGI in the test on HOP-92 NSCLC, with U251 CNS, in the test on 786-0 renal, with OVCAR-4 ovarian, in the test on MDA-MB-435 and with LOX IMVI melanoma was greater than 100 µM throughout. The TGI in the test with HCT-15 colon, in the test with BT-549 breast, with SK-MEL-5 melanoma, in the test with SR leukemia, with UACC-257 melanoma and in the test on A498 renal was greater than 100 µM in each case. The TGI in the test on SF-268 CNS, in the test with HOP-62 NSCLC, in the test on A549 NSCLC, in the test with M14 melanoma, in the test on CAKI-1 renal and with SNB-75 CNS was greater than 100 µM throughout. In addition, the TGI in the test with HS 578T breast was greater than 100 µM.

As to `CC(C)COC(=O)OC(=O)c1ccc(N(C)Cc2cnc3nc(N)nc(N)c3n2)cc1`, the TGI in the test on HOP-92 NSCLC, in the test with U251 CNS, in the test with 786-0 renal, in the test on OVCAR-4 ovarian, with MDA-MB-435 and in the test with LOX IMVI melanoma was greater than 100 µM in each case. In addition, the TGI with HCT-15 colon was greater than 100 µM; in the test with BT-549 breast, 97.8 µM; in the test on SK-MEL-5 melanoma it was greater than 93.9 µM; in the test with SR leukemia, greater than 100 µM; with UACC-257 melanoma, greater than 100 µM; in the test with A498 renal, greater than 100 µM. Further, the TGI with SF-268 CNS, in the test with HOP-62 NSCLC, in the test with A549 NSCLC, in the test with M14 melanoma, with CAKI-1 renal and with SNB-75 CNS was greater than 100 µM throughout. The compound also gave a TGI with HS 578T breast greater than 100 µM.

Turning to `COC(=O)C(Cc1ccccc1)NP(=O)(O)OCC1OC(n2cc(I)c(=O)[nH]c2=O)CC1O` (stereo not drawn), the TGI in the test on HOP-92 NSCLC, with U251 CNS, in the test on 786-0 renal, with OVCAR-4 ovarian, in the test with MDA-MB-435 and with LOX IMVI melanoma was greater than 100 µM each time. For the same compound, the TGI in the test with HCT-15 colon, with BT-549 breast, in the test with SK-MEL-5 melanoma, with SR leukemia, in the test with UACC-257 melanoma and with A498 renal was greater than 100 µM throughout. The TGI with SF-268 CNS, in the test with HOP-62 NSCLC, in the test with A549 NSCLC, in the test with M14 melanoma, in the test on CAKI-1 renal and in the test with SNB-75 CNS was greater than 100 µM throughout. The compound further gave a TGI in the test with HS 578T breast greater than 100 µM.

On to `COc1c2c(cc3c1OCO3)C13C=CC(OC)CC1N(CC3)C2` (stereo not drawn), for which the TGI with HOP-92 NSCLC, in the test with U251 CNS, with 786-0 renal, with OVCAR-4 ovarian, with MDA-MB-435 and with LOX IMVI melanoma was greater than 100 µM throughout. The TGI in the test on HCT-15 colon was greater than 100 µM; in the test with BT-549 breast it was greater than 100 µM; with SK-MEL-5 melanoma, greater than 100 µM; in the test with SR leukemia it was 22.2 µM; with UACC-257 melanoma, greater than 100 µM; with A498 renal, greater than 100 µM. The TGI with SF-268 CNS, with HOP-62 NSCLC, in the test with A549 NSCLC, in the test with M14 melanoma, with CAKI-1 renal and in the test with SNB-75 CNS was greater than 100 µM throughout. This compound also came in with a TGI in the test on HS 578T breast greater than 100 µM.

For the compound `Cc1c(-c2ccccc2)c(C#N)c2nnn(C3CCCCC3)c(=O)n12`, the TGI was 80.8 µM in the test with HOP-92 NSCLC; greater than 100 µM in the test with U251 CNS; greater than 100 µM with 786-0 renal; greater than 100 µM in the test with OVCAR-4 ovarian; greater than 100 µM with MDA-MB-435; greater than 100 µM in the test on LOX IMVI melanoma. Besides, the TGI in the test with HCT-15 colon, in the test on BT-549 breast, in the test on SK-MEL-5 melanoma, in the test with SR leukemia, with UACC-257 melanoma and in the test with A498 renal was greater than 100 µM each time. The TGI in the test on SF-268 CNS is greater than 100 µM; with HOP-62 NSCLC, 46.6 µM; in the test on A549 NSCLC, greater than 100 µM; in the test with M14 melanoma, greater than 100 µM; in the test with CAKI-1 renal it was 47.1 µM; with SNB-75 CNS, 68.8 µM. Besides, the TGI in the test on HS 578T breast was greater than 100 µM.

Consider `CC(=O)Oc1c2c(c(CC=C(C)C)c3c1C(=O)C1=C[C@@H]4CC5C(C)(C)OC(C/C=C(/C)C(=O)O)(C4=O)[C@@]15O3)OC(C)(CCC=C(C)C)C=C2` (stereo partly drawn), for which the TGI in the test with HOP-92 NSCLC turned out to be 1.05 µM; in the test with U251 CNS it was 0.339 µM; with 786-0 renal it was 0.364 µM; in the test with OVCAR-4 ovarian, 0.567 µM; with MDA-MB-435, 0.348 µM; in the test on LOX IMVI melanoma, 0.247 µM. In addition, the TGI in the test on HCT-15 colon is 0.978 µM; with BT-549 breast, 0.461 µM; in the test on SK-MEL-5 melanoma it was 0.737 µM; in the test with SR leukemia, 53.9 µM; with UACC-257 melanoma, 1.36 µM; in the test with A498 renal, 1.82 µM. Besides, the TGI with SF-268 CNS worked out at 1.56 µM; in the test with HOP-62 NSCLC, 1.88 µM; with A549 NSCLC, 0.999 µM; in the test on M14 melanoma, 0.814 µM; with CAKI-1 renal, 0.409 µM; with SNB-75 CNS, 1.39 µM. This compound came in with a TGI with HS 578T breast of 1.44 µM.

In the case of `COc1cccc2c3ccccc3c3nc[nH]c3c12`, the TGI with HOP-92 NSCLC is 61.9 µM; with U251 CNS it was greater than 100 µM; with 786-0 renal, greater than 57.9 µM; in the test with OVCAR-4 ovarian it was greater than 100 µM; in the test on MDA-MB-435, greater than 94.6 µM; with LOX IMVI melanoma, greater than 100 µM. The TGI with HCT-15 colon is 97.1 µM; with BT-549 breast, greater than 100 µM; with SK-MEL-5 melanoma, 30.4 µM; in the test on SR leukemia it was 46.6 µM; in the test with UACC-257 melanoma, greater than 63.8 µM; in the test on A498 renal it was greater than 90.5 µM. The TGI with SF-268 CNS, in the test with HOP-62 NSCLC, in the test on A549 NSCLC, in the test on M14 melanoma, in the test with CAKI-1 renal and in the test on SNB-75 CNS was greater than 100 µM throughout. The compound further showed a TGI in the test with HS 578T breast of 3.75 µM.

Take `C[N+](C)(C)/N=C/c1ccc(O)c(O)c1`: the TGI in the test with HOP-92 NSCLC, in the test on U251 CNS, with 786-0 renal, in the test with OVCAR-4 ovarian, in the test with MDA-MB-435 and in the test on LOX IMVI melanoma was greater than 100 µM each time. Besides, the TGI in the test on HCT-15 colon, in the test on BT-549 breast, in the test with SK-MEL-5 melanoma, with SR leukemia, in the test on UACC-257 melanoma and in the test with A498 renal was greater than 100 µM each time. The TGI with SF-268 CNS, with HOP-62 NSCLC, in the test with A549 NSCLC, with M14 melanoma, in the test on CAKI-1 renal and with SNB-75 CNS was greater than 100 µM each time. In the test on HS 578T breast, this compound came in with a TGI greater than 100 µM.

For the compound `COc1cccc(C2ON=C(c3ccccc3)N2C23CC4CC(CC(C4)C2)C3)c1` (stereo not drawn), the TGI with HOP-92 NSCLC, with U251 CNS, in the test with 786-0 renal, in the test with OVCAR-4 ovarian, in the test on MDA-MB-435 and in the test on LOX IMVI melanoma was greater than 10 µM in each case. Further, the TGI in the test on HCT-15 colon, in the test with BT-549 breast, with SK-MEL-5 melanoma, in the test with SR leukemia, in the test on UACC-257 melanoma and in the test with A498 renal was greater than 10 µM each time. The TGI with SF-268 CNS, in the test on HOP-62 NSCLC, with A549 NSCLC, in the test on M14 melanoma, in the test on CAKI-1 renal and with SNB-75 CNS was greater than 10 µM in each case. This compound also came in with a TGI with HS 578T breast greater than 10 µM.

Turning to `Cn1cc(S(=O)(=O)NC(=O)Nc2ccc(Cl)cc2)c2ccccc21`, the TGI with HOP-92 NSCLC, in the test with U251 CNS, in the test on 786-0 renal, in the test with OVCAR-4 ovarian, with MDA-MB-435 and in the test with LOX IMVI melanoma was greater than 100 µM each time. Further, the TGI in the test with HCT-15 colon was 20.7 µM; with BT-549 breast, greater than 100 µM; in the test with SK-MEL-5 melanoma it was greater than 100 µM; with SR leukemia, greater than 100 µM; in the test with UACC-257 melanoma it was greater than 100 µM; with A498 renal, greater than 100 µM. Besides, the TGI in the test on SF-268 CNS was greater than 100 µM; with HOP-62 NSCLC, greater than 100 µM; with A549 NSCLC it was greater than 100 µM; in the test with M14 melanoma, greater than 100 µM; in the test with CAKI-1 renal it was 81 µM; in the test on SNB-75 CNS it was greater than 100 µM. This compound came in with a TGI in the test with HS 578T breast greater than 100 µM.

Turning to `O=C(O)CCNC(=O)c1cc(N(CCBr)CCBr)c([N+](=O)[O-])cc1[N+](=O)[O-]`, the TGI in the test on HOP-92 NSCLC, with U251 CNS, in the test with 786-0 renal, with OVCAR-4 ovarian, with MDA-MB-435 and in the test with LOX IMVI melanoma was greater than 100 µM each time. The TGI in the test with HCT-15 colon, with BT-549 breast, with SK-MEL-5 melanoma, in the test with SR leukemia, in the test on UACC-257 melanoma and with A498 renal was greater than 100 µM in each case. The TGI in the test with SF-268 CNS, in the test with HOP-62 NSCLC, in the test with A549 NSCLC, with M14 melanoma, in the test on CAKI-1 renal and in the test on SNB-75 CNS was greater than 100 µM each time. The TGI with HS 578T breast is greater than 100 µM.

(Values after PubChem BioAssay (NCI).)
